Measured values as given in ChEMBL document CHEMBL6071133, “Discovery of novel penetrating peptides able to target human leukemia and lymphoma for enhanced PROTAC delivery” (Eur J Med Chem, 2024).

Assays:
[1] = Cytotoxicity against human THP-1 cells assessed as cell viability at higher concentrations incubated for 48 hrs by MTT assay; assay type: toxicity, cell-based; conditions: read-out: Activity
K562 [2] = assay: Potentiation of IMA-PROTAC-induced cytotoxicity against human K562 cells assessed as inhibition of cell growth at compound: IMA-PROTAC concentration ratio of 5:1 incubated for 48 hrs in presence of 10 to 30 umo/L IMA-PROTAC by MTT assay relative to IMA-PROTAC; assay type: functional
K562 [3] = assay: Induction of apoptosis in human K562 cells assessed as necrotic cells at PROTAC to compound concentration ratio of 1:5 incubated for 48 hrs in presence of 3 umol/L IMA-PROTAC by AnnexinV-FITC/PI staining based flow cytometry (reference value: 0.1%); assay type: functional
[4] = Stability of the compound in fetal bovine serum assessed as parent compound remaining measured after 12 hrs by HPLC-MS analysis; assay type: ADME, cell-free, Bos taurus; conditions: cattle, read-out: Stability
[5] = Interaction with IMA-PROTAC assessed as induction of formation of micelle cluster with uniform and distinct spherical morphology by transmission electron microscopy; assay type: physicochemical
K562 [6] = assay: Induction of apoptosis in human K562 cells assessed as early apoptotic cells at PROTAC to compound concentration ratio of 1:5 incubated for 48 hrs in presence of 3 umol/L IMA-PROTAC by AnnexinV-FITC/PI staining based flow cytometry (reference value: 0.03%); assay type: functional
[7] = Drug uptake in human CCRF-CEM cells assessed as perinuclear distribution and colocalization with nucleus at 10 umol/L incubated for 2 hrs by confocal laser microscopy; assay type: ADME, cell-based; conditions: 10 µM, dose 10 µmol/L
[8] = Drug uptake in human K562 cells assessed as fluorescence intensity at 5 umol/L pretreated with endocytosis inhibitor, methyl-beta-cyclodextrin for 0.5 hrs followed by incubation with compound for 2 hrs by FACS analysis; assay type: ADME, cell-based; conditions: k562, 2 h, 5 µM, dose 5 µmol/L
[9] = Drug uptake in human K562 cells assessed as increase in fluorescence intensity at 5 umol/L pretreated with endocytosis inhibitor, nystatin for 0.5 hrs followed by incubation with compound for 2 hrs by FACS analysis; assay type: ADME, cell-based; conditions: k562, 2 h, 5 µM, dose 5 µmol/L

- remaining at 12 h [4]: 80%
- Activity [5]: Not Active
- Drug uptake [7]: Active
- Drug uptake [8]: Not Active
- Drug uptake [9]: Active
Compound: CC(C)C[C@H](NC(=O)[C@H](Cc1csc2ccccc12)NC(=O)[C@@H](Cc1ccccc1)NC(=O)[C@H](Cc1ccccc1)NC(=O)CNC(=O)[C@@H](N)CS)C(=O)N[C@@H](CCCNC(=N)N)C(=O)N[C@@H](CO)C(=O)N[C@@H](CS)C(=O)O
- viability at 48 h [1]: > 75%
- inhibition (INH) (K562 [2]): 20%
- Activity (K562 [3]): 0%
- Activity (K562 [6]): 22.82%
